Assay results reported in PubChem BioAssay AID2060900 (Molecular Pharmacology Branch, DTP, NCI, 2025).

System: 521955-158-R2-J5-PDC complex spheroids, viability
Assay: Anticancer human tumor 521955-158-R2-J5-PDC patient-derived pancreatic carcinoma cell line growth inhibition [RAS]
Details: for IC50: curve of first compound; for viability, T/C: stronger effect = lower value
Outline: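 Agents were tested in combination matrices in half-log decrements from a top concentration at or near clinical Cmax (10 microM if undetermined). Targets were multi-cell spheroids of tumour lines plus HUVEC and MSC stromal cells.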

[1] = second compound 0.000949 µM, first compound 0.00316 µM
[2] = second compound 0.000949 µM, first compound 0.01 µM
[3] = second compound 0.000949 µM, first compound 0.0316 µM
[4] = second compound 0.000949 µM, first compound 0.1 µM
[5] = second compound 0.000949 µM, first compound 0.316 µM
[6] = second compound 0.000949 µM, first compound 1 µM
[7] = second compound 0.003 µM, first compound 0.00316 µM
[8] = second compound 0.003 µM, first compound 0.01 µM
[9] = second compound 0.003 µM, first compound 0.0316 µM
[10] = second compound 0.003 µM, first compound 0.1 µM
[11] = second compound 0.003 µM, first compound 0.316 µM
[12] = second compound 0.003 µM, first compound 1 µM
[13] = second compound 0.00949 µM, first compound 0.00316 µM
[14] = second compound 0.00949 µM, first compound 0.01 µM
[15] = second compound 0.00949 µM, first compound 0.0316 µM
[16] = second compound 0.00949 µM, first compound 0.1 µM
[17] = second compound 0.00949 µM, first compound 0.316 µM
[18] = second compound 0.00949 µM, first compound 1 µM
[19] = second compound 0.03 µM, first compound 0.00316 µM
[20] = second compound 0.03 µM, first compound 0.01 µM
[21] = second compound 0.03 µM, first compound 0.0316 µM
[22] = second compound 0.03 µM, first compound 0.1 µM
[23] = second compound 0.03 µM, first compound 0.316 µM
[24] = second compound 0.03 µM, first compound 1 µM
[25] = second compound 0.0949 µM, first compound 0.00316 µM
[26] = second compound 0.0949 µM, first compound 0.01 µM
[27] = second compound 0.0949 µM, first compound 0.0316 µM
[28] = second compound 0.0949 µM, first compound 0.1 µM
[29] = second compound 0.0949 µM, first compound 0.316 µM
[30] = second compound 0.0949 µM, first compound 1 µM
[31] = second compound 0.3 µM, first compound 0.00316 µM
[32] = second compound 0.3 µM, first compound 0.01 µM
[33] = second compound 0.3 µM, first compound 0.0316 µM
[34] = second compound 0.3 µM, first compound 0.1 µM
[35] = second compound 0.3 µM, first compound 0.316 µM
[36] = second compound 0.3 µM, first compound 1 µM
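Further: compound exposure lasted seven days before the viability read.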
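Wherever viability, T/C is given: spheroids also contain HUVEC endothelial cells and mesenchymal stem cells as stroma.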

Nc1ccn(C2OC(CO)C(O)C2(F)F)c(=O)n1 (centres undefined) + CCn1c(-c2cccnc2C(C)OC)c2c3cc(ccc31)N1CCOC(CC(NC(=O)C(C(C)C)N(C)C(=O)C3(F)CCN(C(=O)C#CC(C)(C)N(C)C)CC3)C(=O)N3CCCC(N3)C(=O)OCC(C)(C)C2)C1
IC50 (second compound 0.000949 µM): 156 nM | IC50 (second compound 0.003 µM): 204 nM | IC50 (second compound 0.00949 µM): 251 nM | IC50 (second compound 0.03 µM): 284 nM | IC50 (second compound 0.0949 µM): 190 nM | IC50 (second compound 0.3 µM): 109 nM | viability, T/C [1]: 112% | viability, T/C [2]: 80.2% | viability, T/C [3]: 75.4% | viability, T/C [4]: 56.8% | viability, T/C [5]: 51.6% | viability, T/C [6]: 14.4% | viability, T/C [7]: 97.8% | viability, T/C [8]: 90.3% | viability, T/C [9]: 79.3% | viability, T/C [10]: 67.1% | viability, T/C [11]: 39.6% | viability, T/C [12]: 11.8% | viability, T/C [13]: 85.3% | viability, T/C [14]: 91% | viability, T/C [15]: 75.9% | viability, T/C [16]: 79.8% | viability, T/C [17]: 42.6% | viability, T/C [18]: 15.6% | viability, T/C [19]: 95.5% | viability, T/C [20]: 78.9% | viability, T/C [21]: 69% | viability, T/C [22]: 69.4% | viability, T/C [23]: 53.4% | viability, T/C [24]: 10.1% | viability, T/C [25]: 79.5% | viability, T/C [26]: 77.9% | viability, T/C [27]: 62.5% | viability, T/C [28]: 65.2% | viability, T/C [29]: 41.2% | viability, T/C [30]: 11.2% | viability, T/C [31]: 72.2% | viability, T/C [32]: 66.9% | viability, T/C [33]: 59.6% | viability, T/C [34]: 51.8% | viability, T/C [35]: 36.5% | viability, T/C [36]: 12.6%

C=CC(=O)N1CCN(c2nc(OCC3CCCN3C)nc3c(F)c(-c4nc(N)cc(C)c4C(F)(F)F)c(Cl)cc23)C(C)C1 (centres undefined) + CCn1c(-c2cc(N3CCN(C)CC3)cnc2C(C)OC)c2c3cc(ccc31)-c1csc(n1)CC(NC(=O)C1CC1C)C(=O)N1CCCC(N1)C(=O)OCC(C)(C)C2
IC50 (second compound 0.000949 µM): < 3.16 nM | IC50 (second compound 0.003 µM): < 3.16 nM | IC50 (second compound 0.00949 µM): < 3.16 nM | IC50 (second compound 0.03 µM): < 3.16 nM | IC50 (second compound 0.0949 µM): < 3.16 nM | IC50 (second compound 0.3 µM): < 3.16 nM | viability, T/C [1]: 42.5% | viability, T/C [2]: 43.1% | viability, T/C [3]: 45.9% | viability, T/C [4]: 45.9% | viability, T/C [5]: 57.7% | viability, T/C [6]: 41% | viability, T/C [7]: 39.4% | viability, T/C [8]: 36.5% | viability, T/C [9]: 46.7% | viability, T/C [10]: 49.3% | viability, T/C [11]: 39.9% | viability, T/C [12]: 49.5% | viability, T/C [13]: 35% | viability, T/C [14]: 35.4% | viability, T/C [15]: 44.3% | viability, T/C [16]: 29.6% | viability, T/C [17]: 42% | viability, T/C [18]: 36.1% | viability, T/C [19]: 17.1% | viability, T/C [20]: 19% | viability, T/C [21]: 22.6% | viability, T/C [22]: 20.2% | viability, T/C [23]: 30.7% | viability, T/C [24]: 18.6% | viability, T/C [25]: 16.1% | viability, T/C [26]: 11.4% | viability, T/C [27]: 11.9% | viability, T/C [28]: 13.9% | viability, T/C [29]: 15.1% | viability, T/C [30]: 11.9% | viability, T/C [31]: 10.8% | viability, T/C [32]: 10.2% | viability, T/C [33]: 11.3% | viability, T/C [34]: 12.5% | viability, T/C [35]: 15.9% | viability, T/C [36]: 9.71%
